We go through two compounds from ChEMBL document CHEMBL3400135, “Design, synthesis and biological evaluation of novel homocamptothecin analogues as potent antitumor agents” (Bioorg Med Chem, 2015).

Molecules are shown by their SMILES.

Data set [1] concerns HT-29. Briefly: Antitumor activity against human HT-29 cells xenografted in mouse assessed as relative tumor increment rate at 15 mg/kg, iv dosed three times per week to the end of treatment relative to untreated control. In kind it is functional.
The subject of data set [2] is Mus musculus. Briefly: Toxicity in human HT-29 cells xenografted mouse assessed as body weight level at 15 mg/kg, iv dosed three times per week to the end of treatment measured on day 21 (reference value: 21.2 +/- 1.6 g). In kind it is organism-based. The arrangement: dose 15 mg/kg, route intravenous. To be noted: in vivo. Background: A xenograft is tissue or cells of one species grown in another, often human tumour cells in immunodeficient mice.

The subject of data set [3] is Mus musculus. Briefly: Toxicity in human HT-29 cells xenografted mouse assessed as body weight level at 15 mg/kg, iv dosed three times per week to the end of treatment measured on day 7 (reference value: 21.7 +/- 1 g). In kind it is organism-based. The settings on record: in vivo. The arrangement: dose 15 mg/kg, route intravenous.
For data set [4], the system named is Mus musculus. Kind of data set: Toxicity in human HT-29 cells xenografted mouse assessed as body weight level at 15 mg/kg, iv dosed three times per week to the end of treatment measured on day 10 (reference value: 22.4 +/- 1.3 g). The format is organism-based. The arrangement: dose 15 mg/kg, route intravenous. To be noted: in vivo.
Data set [5] relates to Mus musculus. Briefly: Toxicity in human HT-29 cells xenografted mouse assessed as body weight level at 15 mg/kg, iv dosed three times per week to the end of treatment measured on day 14 (reference value: 22.7 +/- 1.5 g). In kind it is organism-based. The arrangement: dose 15 mg/kg, route intravenous. The settings on record: in vivo.
In data set [6] the test system is Mus musculus. Kind of data set: Toxicity in human HT-29 cells xenografted mouse assessed as body weight level at 15 mg/kg, iv dosed three times per week to the end of treatment measured on day 17 (reference value: 22 +/- 1.7 g). The format is organism-based. Also on record: dose 15 mg/kg, route intravenous. To be noted: in vivo.
Data set [7] relates to Mus musculus. Briefly: Toxicity in human HT-29 cells xenografted mouse assessed as lethal toxicity at 15 mg/kg, iv dosed three times per week to the end of treatment. The format is organism-based. The arrangement: dose 15 mg/kg, route intravenous. The settings on record: in vivo.
Data set [8] has as its system Mus musculus. Briefly: Toxicity in human HT-29 cells xenografted mouse assessed as body weight level at 15 mg/kg, iv dosed three times per week to the end of treatment measured on day 3 (reference value: 20.7 +/- 1.2 g). Also on record: dose 15 mg/kg, route intravenous. In kind it is organism-based. The settings on record: in vivo.
For data set [9], the system named is HT-29. Briefly: Cytotoxicity against human HT-29 cells after 72 hrs by sulforhodamine B assay. The settings on record: ht-29. The format is functional, cell-based.
In another data set the test system is HCT-116. Kind of data set: Potency index, ratio of IC50 for SN38 to IC50 for compound against human HCT116 cells after 72 hrs by sulforhodamine B assay. The format is functional. On the technique in general: In SRB staining, fixed cells bind dye roughly in proportion to their protein.
A short description of data set [10]: Cytotoxicity against human HCT116 cells after 72 hrs by sulforhodamine B assay. In kind it is functional, cell-based, HCT-116. To be noted: hct-116.

For the compound `CCc1c2c(nc3ccc(OC(=O)N4CCC(N5CCCCC5)CC4)cc13)-c1cc3c(c(=O)n1C2)COC(=O)[C@]3(O)CC` [IRINOTECAN], the T/C in the data set with HT-29 [1] turned out to be 42.22%. For the same compound, the Activity with Mus musculus [2] is reported as 21.3 g; in the data set with Mus musculus [3] it was 20.8 g; with Mus musculus [4] it was 21.6 g; in the data set on Mus musculus [5], 22.4 g; in the data set with Mus musculus [6] it was 22.3 g; with Mus musculus [7], “Non-toxic”. Moreover, the Activity in the data set with Mus musculus [8] was 19.9 g.
With `CC[C@]1(O)c2cc3n(c(=O)c2COC(=O)[C@H]1OC)Cc1c-3nc2cc3c(cc2c1-c1ccncc1)OCO3`, the IC50 came to 1.27 nM with HT-29 [9] and 0.215 nM in data set [10]. For the same compound, the “Ratio IC50” value in the data set with HCT-116 came out at 20.

Broadly, the T/C is the ratio of treated to control. By IC50 is commonly meant the midpoint of a concentration-inhibition curve. The low end stands for inhibition by little substance, the high end for a need for much substance.
